Experimental findings from ChEMBL document CHEMBL1126567, “CC-1065 functional analogues possessing different electron-withdrawing substituents and leaving groups: synthesis, kinetics, and sequence specificity of reaction with DNA and biological evaluation” (J Med Chem, 1993) are described below.

Values after ≈ are worked out from the molar mass of the structure shown.

The test in a line: In vitro reduction in viability of KB cells by modified crystal violet assay. It is filed as functional, cell-based. The settings on record: Homo sapiens.
What is called IC50 is the point on the concentration scale where inhibition reaches its midpoint. Low values mean inhibition by little substance, high ones a need for much substance. For `CS(=O)(=O)OCC1CN(S(C)(=O)=O)c2cc(OCc3ccccc3)ccc21` (configuration not stated), the IC50 worked out at 4.39 µg/mL (≈ 10.7 µM).
The value for `CS(=O)(=O)N1CC(CCl)c2cc(C=O)c(O)cc21` (configuration not stated) was 4.83 µg/mL (≈ 16.7 µM); that for `CS(=O)(=O)N1CC(CCl)c2cc(C=O)c(OCc3ccccc3)cc21` (configuration not stated) was 3.24 µg/mL (≈ 8.53 µM).
Under `COC(=O)c1cc2c(cc1OCc1ccccc1)N(S(C)(=O)=O)CC2CCl` (configuration not stated) stands 7.14 µg/mL (≈ 17.4 µM); under `CS(=O)(=O)OCC1CN(S(C)(=O)=O)c2cc(O)c(Br)cc21` (configuration not stated), 0.308 µg/mL (≈ 0.769 µM); under `CS(=O)(=O)N1CC(CCl)c2ccc(OCc3ccccc3)cc21` (configuration not stated), 6.32 µg/mL (≈ 18 µM).
The value for `COC(=O)c1cc2c(cc1O)N(S(C)(=O)=O)CC2CCl` (configuration not stated) was 8.38 µg/mL (≈ 26.2 µM).
The molecule `CS(=O)(=O)N1CC(CCl)c2ccc(O)cc21` (configuration not stated) gave an IC50 of 4.24 µg/mL (≈ 16.2 µM).
Molecule `CS(=O)(=O)N1CC(CCl)c2cc([N+](=O)[O-])c(O)cc21` (configuration not stated) gave an IC50 of 8.85 µg/mL (≈ 28.9 µM). Against the preceding molecule, the IC50 is about 2.1-fold higher.
`CS(=O)(=O)OCC1CN(S(C)(=O)=O)c2cc(O)ccc21` (configuration not stated): it took 3.69 µg/mL (≈ 11.5 µM) to reach half-maximal inhibition (IC50).
Regarding `COc1cccc2c1C(=O)c1c(O)c3c(c(O)c1C2=O)C[C@@](O)(C(=O)CO)C[C@@H]3O[C@H]1C[C@H](N)[C@H](O)[C@H](C)O1` [DOXORUBICIN], half-maximal inhibition (IC50) required 0.02 µg/mL (≈ 0.0368 µM).
Under `CS(=O)(=O)N1CC2CC23C=CC(=O)C=C13` (configuration not stated) stands 8.64 µg/mL (≈ 38.4 µM).
For the molecule `CS(=O)(=O)OCC1CN(S(C)(=O)=O)c2cc(OCc3ccccc3)c(Br)cc21` (configuration not stated), the IC50 was 5.21 µg/mL (≈ 10.6 µM).
Under `CS(=O)(=O)OCC1CN(S(C)(=O)=O)c2cc(O)c([N+](=O)[O-])cc21` (configuration not stated) stands 0.764 µg/mL (≈ 2.09 µM); under `CS(=O)(=O)N1CC(CCl)c2cc(Br)c(O)cc21` (configuration not stated), 3.8 µg/mL (≈ 11.2 µM); under `CS(=O)(=O)N1CC(CCl)c2cc(Br)c(OCc3ccccc3)cc21` (configuration not stated), 6.18 µg/mL (≈ 14.3 µM).
Under `CS(=O)(=O)OCC1CN(S(C)(=O)=O)c2cc(OCc3ccccc3)c([N+](=O)[O-])cc21` (configuration not stated) stands 7.91 µg/mL (≈ 17.3 µM).
